Results reported in PMC12603070, “A high-throughput screening approach to discover potential colorectal cancer chemotherapeutics: repurposing drugs to identify novel disruptors of 14-3-3 proteins” (Cell Death & Disease, 2025).

Columns and labels:
[1] = system: HT-29 and Caco-2 CRC cells; experiment: Cell death in CRC cells, statements covering both HT-29 and Caco-2 (screen at 20 µM, dose-response); assay type: cell-based, human; conditions: dose-response 2.5-20 µM in HT-29 and Caco-2
Method: Cells were plated at a density of 20,000 cells/well into 96-well plates (PerkinElmer; #6055302) and incubated overnight at 37 °C before the addition of the drugs. One hour prior to imaging, Hoechst 33342 (Invitrogen, #H3570) and propidium iodide (Invitrogen; #P3566) were added to the wells to achieve final concentrations of 50 ng/ml and 0.5 μg/ml, respectively. To measure apoptosis, AlexaFluor 488-conjugated Annexin V (ThermoFisher, Massachusetts, USA; #A13201) was also added at a dilution of 1:400 from the commercial stock. A high-content imaging system (PerkinElmer; Operetta CLS), was used to quantify cell death and apoptosis by calculating the number of propidium iodide-positive cells relative to Hoechst-positive cells, and the number of Annexin V-positive cells relative to Hoechst-positive cells, respectively. To assess caspase-dependent apoptosis, cells were pre-treated for 30 min with the caspase inhibitor Z-VAD-FMK (BD Biosciences, New Jersey, USA; #550377; 20 μM) or the negative control Z-FA-FMK (BD Biosciences; #550411; 20 μM) prior to the incubation of drugs.

[2] = system: BAD translocation to mitochondria in Caco-2 and HT-29 cells; experiment: Confocal imaging of BAD-mCitrine translocation to mitochondria in CRC cells; assay type: cell-based, human; conditions: 2 µM, 24 h post-treatment
Method: (§1) To visualize BAD translocation, 35 mm glass-bottom dishes (ibidi, Gräfelfing, Germany; #81158) were coated with 0.1 mg/mL Poly-D-lysine hydrobromide for 2 h at 37 °C. After coating, dishes were washed twice with sterilized water. Subsequently, cells transfected with BAD-mCitrine were seeded at a density of 20,000 cells per dish and incubated for 24 h to allow for cell attachment. For live-cell imaging, cells were then incubated for 1 h with the mitochondrial membrane potential dye tetramethylrhodamine ethyl ester (TMRE, Invitrogen; #T668) at a final concentration of 100 nM, according to the manufacturer’s instructions. Images were acquired on a Zeiss (Oberkochen, Germany) LSM-900 Airyscan inverted confocal microscope equipped with an environmental incubation system, laser lines including 488 and 561 nm, and an oil immersion 60×/1.40 Plan achromat objective. The signal from the YFP fluorophore (ex. 488 nm, det. 525–542 nm) and the TMRE (ex. 561 nm, det. 600–700 nm) were collected in super-resolution mode. The cell viability dye, DRAQ (BioLegend, California, USA; #424101), was added to the medium at a 1:1000 dilution from the commercial stock and incubated at room temperature for 30 min prior to live-cell imaging. To quantify the colocalization of BAD-mCitrine and the mitochondria labeled with the TMRE, the JACoP plugin in ImageJ was employed. A correlation analysis was performed based on Pearson’s coefficient between pixel-gray values for the two channels.

[3] = system: BAD translocation to mitochondria in NIH-3T3 cells; experiment: Confocal imaging of BAD-mCitrine translocation to TMRE-labeled mitochondria in NIH-3T3; assay type: cell-based; conditions: NIH-3T3 expressing BAD-mCitrine; R18 10 µM, FTY720 2 µM; 24 h
Method: as §1, with “A correlation analysis was performed based on Pearson’s coefficient between pixel-gray values for the two channels.” left out

[4] = target: T1, 14-3-3ζ-Rluc8:112-136F-mC complex (Homo sapiens, UniProt P63104); experiment: Co-immunoprecipitation of 14-3-3ζ-Rluc8:112-136F-mC complex; assay type: cell-based; conditions: NIH-3T3 expressing BRET sensor, 20 μM, 3 h, vs DMSO
T1 construct: expressed in transfected cells; host or cells: NIH-3T3 fibroblasts, bi-directional pBI-CMV1 plasmid
T1 sequence (P63104 1-245): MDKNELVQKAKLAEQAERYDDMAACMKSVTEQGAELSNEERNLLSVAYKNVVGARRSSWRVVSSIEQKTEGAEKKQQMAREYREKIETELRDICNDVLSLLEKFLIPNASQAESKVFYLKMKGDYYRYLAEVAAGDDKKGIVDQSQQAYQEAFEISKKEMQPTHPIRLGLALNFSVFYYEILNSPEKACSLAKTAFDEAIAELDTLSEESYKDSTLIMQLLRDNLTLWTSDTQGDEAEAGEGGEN
Method: NIH-3T3 cells were plated in 10 cm culture dishes at a density of 550,000 cells per dish. Transfection was conducted 48 h post-seeding. At 48 h post-transfection, DMSO or FTY-720 (20 μM) was added to the culture media and incubated with cells expressing the BRET-sensor for 3 h. Cell lysates were collected using RIPA buffer (0.9% NaCl, 1% v/v triton X-100, 0.5% sodium deoxycholate, 0.1% SDS, and 0.6% tris base), supplemented with protease inhibitor cocktail (Sigma-Aldrich; #P8340). The protein concentration was determined using the Bradford assay. Equal amounts of protein (100 μg) were subjected to immunoprecipitation using 1 μg anti-GFP antibody per sample (Invitrogen; #A-11120) and protein A/G magnetic beads (Thermo Fisher Scientific, Massachusetts, USA; #80104G), according to the manufacturer’s instructions. Antibodies against GFP were used to precipitate mCitrine due to the high degree of sequence homology. Immunoprecipitated proteins were eluted by boiling the beads in 1 X Laemmli protein sample buffer (Bio-Rad, California, USA; #1610747) for 5 min. Eluted samples were resolved in 10% SDS-PAGE gels and transferred to PVDF membranes (Bio-Rad, California, USA; #10026933) using the Trans-Blot Turbo transfer system (Bio-Rad). […] Protein bands were detected using Clarity Max western ECL substrate. […]

Row | Structure (SMILES) | Lowest concentration that significantly induced cell death [1] | Mitochondrial translocation of BAD [2] | BAD translocation to TMRE-labeled mitochondria [3] | Abundance of 14-3-3ζ-Rluc8 within the co-immunoprecipitated complex [4]
1 | O=C(NC1CCN(CCCCC2(C(=O)NCC(F)(F)F)c3ccccc3-c3ccccc32)CC1)c1ccccc1-c1ccc(C(F)(F)F)cc1 [Lomitapide] | 5 µM | Mitochondrial translocation of BAD was observed | – | –
2 | OC1(c2ccc(Cl)c(C(F)(F)F)c2)CCN(CCCC(c2ccc(F)cc2)c2ccc(F)cc2)CC1 [Penfluridol] | 5 µM | Mitochondrial translocation of BAD was observed | – | –
3 | CC(C)(C)c1ccc(C(O)CCCN2CCC(C(O)(c3ccccc3)c3ccccc3)CC2)cc1 (centres unmarked) [Terfenadine] | 5 µM | Mitochondrial translocation of BAD was observed | – | –
4 | CCCCCCCCc1ccc(CCC(N)(CO)CO)cc1 [Fingolimod (FTY720), Fingolimod] | – | – | promoted BAD translocation | reduced
